The values below come from ChEMBL document CHEMBL1909046, “DrugMatrix in vitro pharmacology data”.

SMILES strings stand for the structures. pIC50, pKi: −log10 of the molar value.

In test [1] the target is T1, Cysteinyl leukotriene receptor 1 (Homo sapiens, UniProt Q9Y271). Further: in other assays of this panel Not Active means under 50% inhibition at 10 µM.
T1 sequence (Q9Y271 whole entry): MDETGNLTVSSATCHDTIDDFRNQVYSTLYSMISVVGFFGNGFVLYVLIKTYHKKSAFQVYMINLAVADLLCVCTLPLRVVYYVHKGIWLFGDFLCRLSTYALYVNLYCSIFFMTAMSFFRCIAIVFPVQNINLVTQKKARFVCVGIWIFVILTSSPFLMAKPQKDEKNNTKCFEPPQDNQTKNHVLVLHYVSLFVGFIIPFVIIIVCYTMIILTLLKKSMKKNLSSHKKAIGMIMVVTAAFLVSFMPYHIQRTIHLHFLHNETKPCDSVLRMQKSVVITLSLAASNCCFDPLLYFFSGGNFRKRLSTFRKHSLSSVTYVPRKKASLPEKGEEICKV
In kind it is cell membranes, Membrane. Particulars: cho-k1.

The nature of test [2]: DRUGMATRIX: Purinergic P2X radioligand binding (ligand: [3H] alpha, beta-Methylene-ATP). In kind it is cell membranes, Oryctolagus cuniculus, New Zealand albino, Urinary bladder, Membrane. The following applies: Not Active = under 50% inhibition at 10 µM.
The target of test [3] is Estrogen receptor beta (Homo sapiens, UniProt Q92731). Particulars: sf9. Further: in other assays of this panel Not Active means under 50% inhibition at 10 µM.
Sequence of Estrogen receptor beta (Q92731 whole entry): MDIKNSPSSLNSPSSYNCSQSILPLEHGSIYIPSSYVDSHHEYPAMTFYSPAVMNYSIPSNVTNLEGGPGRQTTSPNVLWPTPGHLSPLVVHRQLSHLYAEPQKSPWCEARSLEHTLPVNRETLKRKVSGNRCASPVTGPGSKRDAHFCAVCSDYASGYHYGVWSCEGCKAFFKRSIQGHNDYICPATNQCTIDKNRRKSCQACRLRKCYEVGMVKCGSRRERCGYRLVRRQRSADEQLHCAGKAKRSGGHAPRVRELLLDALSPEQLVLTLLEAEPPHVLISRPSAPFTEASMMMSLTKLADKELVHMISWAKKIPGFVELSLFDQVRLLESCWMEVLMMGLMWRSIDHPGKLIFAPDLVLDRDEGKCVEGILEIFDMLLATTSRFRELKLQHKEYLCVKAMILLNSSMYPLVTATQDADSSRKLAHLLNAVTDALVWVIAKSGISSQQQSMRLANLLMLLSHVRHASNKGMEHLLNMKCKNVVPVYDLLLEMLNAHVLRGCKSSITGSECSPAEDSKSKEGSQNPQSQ
In test [4] the target is 5-hydroxytryptamine receptor 2B (Homo sapiens, UniProt P41595). It is filed as cell membranes, CHO-K1, Membrane. Further: in other assays of this panel Not Active means under 50% inhibition at 10 µM.
Sequence of 5-hydroxytryptamine receptor 2B (P41595 whole entry): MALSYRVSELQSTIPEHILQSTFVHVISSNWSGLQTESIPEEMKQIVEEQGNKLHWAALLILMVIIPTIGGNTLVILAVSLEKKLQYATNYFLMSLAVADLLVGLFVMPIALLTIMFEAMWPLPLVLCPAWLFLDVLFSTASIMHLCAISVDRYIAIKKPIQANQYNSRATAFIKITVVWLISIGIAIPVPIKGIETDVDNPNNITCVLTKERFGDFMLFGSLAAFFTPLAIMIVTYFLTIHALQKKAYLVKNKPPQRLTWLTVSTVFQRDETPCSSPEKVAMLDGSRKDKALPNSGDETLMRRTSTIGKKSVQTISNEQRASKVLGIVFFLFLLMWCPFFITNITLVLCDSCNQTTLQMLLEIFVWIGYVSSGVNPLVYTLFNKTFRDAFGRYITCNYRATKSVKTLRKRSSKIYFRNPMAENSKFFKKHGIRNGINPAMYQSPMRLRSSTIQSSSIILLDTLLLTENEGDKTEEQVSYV
The target of test [5] is T2, Amine oxidase [flavin-containing] A (Homo sapiens, UniProt P21397).
T2 sequence (P21397 whole entry): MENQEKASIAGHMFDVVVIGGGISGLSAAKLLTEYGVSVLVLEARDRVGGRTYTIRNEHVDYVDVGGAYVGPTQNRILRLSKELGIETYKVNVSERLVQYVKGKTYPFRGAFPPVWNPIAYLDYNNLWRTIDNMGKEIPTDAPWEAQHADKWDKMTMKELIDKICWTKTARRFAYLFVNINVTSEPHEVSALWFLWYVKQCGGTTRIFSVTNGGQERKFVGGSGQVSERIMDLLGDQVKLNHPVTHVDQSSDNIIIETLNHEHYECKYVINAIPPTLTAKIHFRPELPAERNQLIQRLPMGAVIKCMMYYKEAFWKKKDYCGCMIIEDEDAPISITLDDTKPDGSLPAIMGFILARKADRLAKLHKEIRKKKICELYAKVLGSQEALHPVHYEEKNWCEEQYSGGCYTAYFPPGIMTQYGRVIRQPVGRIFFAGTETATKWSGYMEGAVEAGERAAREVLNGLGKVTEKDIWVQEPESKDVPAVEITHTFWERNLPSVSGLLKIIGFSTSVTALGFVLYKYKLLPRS
Description: DRUGMATRIX: Monoamine Oxidase MAO-A enzyme inhibition (substrate: Kynuramine). Details: species or system BTI-TN-5B1-4. The following applies: bti-tn-5b1-4; Not Active = under 50% inhibition at 10 µM.

In test [6] the target is Sodium-dependent noradrenaline transporter (Homo sapiens, UniProt P23975). Description: DRUGMATRIX: Norepinephrine Transporter radioligand binding (ligand: [125I] RTI-55). In kind it is cell membranes, MDCK, Membrane. Particulars: Not Active = under 50% inhibition at 10 µM; for IC50: mdck; for pIC50: read-out: IC50; for pKi: read-out: Ki.
Sequence of Sodium-dependent noradrenaline transporter (P23975 whole entry): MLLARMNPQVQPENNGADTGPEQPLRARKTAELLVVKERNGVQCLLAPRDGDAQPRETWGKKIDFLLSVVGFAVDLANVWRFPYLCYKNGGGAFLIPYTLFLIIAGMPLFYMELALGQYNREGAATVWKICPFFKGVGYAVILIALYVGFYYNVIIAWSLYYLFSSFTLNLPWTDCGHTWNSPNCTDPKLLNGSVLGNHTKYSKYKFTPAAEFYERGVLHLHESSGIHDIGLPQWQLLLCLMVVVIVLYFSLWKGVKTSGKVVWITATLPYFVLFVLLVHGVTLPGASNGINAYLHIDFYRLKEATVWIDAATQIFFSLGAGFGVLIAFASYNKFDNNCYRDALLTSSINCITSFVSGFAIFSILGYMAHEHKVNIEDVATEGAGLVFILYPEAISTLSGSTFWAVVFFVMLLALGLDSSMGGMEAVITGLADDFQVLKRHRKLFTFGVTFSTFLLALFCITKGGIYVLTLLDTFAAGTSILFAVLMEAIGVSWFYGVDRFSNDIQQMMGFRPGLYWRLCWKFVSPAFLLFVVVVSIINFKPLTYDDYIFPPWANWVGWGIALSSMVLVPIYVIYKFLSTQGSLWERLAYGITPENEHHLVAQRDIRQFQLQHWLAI
In test [7] the target is Protein phosphatase 3 catalytic subunit alpha (Homo sapiens, UniProt Q08209). Details: species or system Escherichia coli.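 Further: inhibition of calcineurin (PP2B) enzyme activity, measured with DiFMUP as the substrate; in other assays of this panel Not Active means under 50% inhibition at 10 µM.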

A word on the pIC50: it is the IC50 on a negative log10 scale, so that one unit is a factor of ten. By pKi is commonly meant the negative decadic logarithm of the Ki, by convention in mol/L.

For the compound `CN1C[C@H](C(=O)N[C@]2(C)O[C@@]3(O)[C@@H]4CCCN4C(=O)[C@H](Cc4ccccc4)N3C2=O)C[C@@H]2c3cccc4[nH]cc(c34)C[C@H]21` [DIHYDROERGOTAMINE], the IC50 entry in test [1], in test [2], in test [3], in test [5], in test [6] and in test [7] was “Not Active” in each case. Besides, the Ki result in test [2] is reported as “Not Active”. Moreover, the negative-log IC50 (pIC50) in test [4] (read-out: IC50) was 8.17. Further, the pKi in test [4] (read-out: Ki) was 8.36.

`Cc1c(N(C)CS(=O)(=O)[O-])c(=O)n(-c2ccccc2)n1C.[Na+]` [DIPYRONE SODIUM]: the IC50 result in test [1], in test [2], in test [3], in test [4] (cho-k1), in test [5] and in test [6] was “Not Active” throughout. The IC50 entry in test [7] is reported as “Not Active”. Also, the Ki entry in test [2] is given as “Not Active”.

As to `CC(CCc1ccc(O)cc1)NCCc1ccc(O)c(O)c1` (stereo not given) [DOBUTAMINE], the IC50 result in test [1], in test [2], in test [3], in test [4] (cho-k1), in test [5] and in test [7] was “Not Active” throughout. Further, the Ki entry in test [2] is “Not Active”. Also, the pIC50 in test [6] is 6.42. Moreover, the negative-log Ki (pKi) in test [6] is 6.42.

In the case of `CCn1cc(C(=O)O)c(=O)c2cc(F)c(N3CCNCC3)nc21` [ENOXACIN], the IC50 result in test [1], in test [2], in test [3], in test [4] (cho-k1), in test [5] and in test [6] was “Not Active” in each case. Also, the IC50 entry in test [7] is reported as “Not Active”. Also, the Ki entry in test [2] is “Not Active”.

Regarding `CCC(=O)O[C@H]1[C@H](O[C@@H]2[C@@H](C)[C@H](O[C@H]3C[C@@](C)(OC)[C@@H](O)[C@H](C)O3)[C@@H](C)C(=O)O[C@H](CC)[C@@](C)(O)[C@H](O)[C@@H](C)C(=O)[C@H](C)C[C@@]2(C)O)O[C@H](C)C[C@@H]1N(C)C` [ERYTHROMYCIN PROPIONATE], the IC50 result in test [1], in test [2], in test [3], in test [4] (cho-k1), in test [5] and in test [6] was “Not Active” throughout. Besides, the IC50 entry in test [7] was “Not Active”. In addition, the Ki result in test [2] is on record as “Not Active”.

As for `CC(=O)OCC(CCn1cnc2cnc(N)nc21)COC(C)=O` [FAMCICLOVIR], the IC50 result in test [1], in test [2], in test [3], in test [4] (cho-k1), in test [5] and in test [6] was “Not Active” in each case. In test [7], the IC50 entry was “Not Active”. The Ki result in test [2] is given as “Not Active”.

With `CCOC(=O)C1=C(C)NC(C)=C(C(=O)OC)C1c1cccc(Cl)c1Cl` (stereo not given) [FELODIPINE], the IC50 result in test [1], in test [2], in test [3], in test [4] (cho-k1), in test [5] and in test [6] was “Not Active” throughout. In addition, the IC50 entry in test [7] is recorded as “Not Active”. Besides, in test [2], the Ki result is “Not Active”.

On to `CC(C(=O)O)c1ccc(-c2ccccc2)c(F)c1` (stereo not given) [FLURBIPROFEN], for which the IC50 entry in test [1], in test [2], in test [3], in test [4] (cho-k1), in test [5] and in test [6] was “Not Active” throughout. The IC50 result in test [7] is given as “Not Active”. Moreover, in test [2], the Ki result is recorded as “Not Active”.

Regarding `Cc1cn[nH]c1` [FOMEPIZOLE], the IC50 entry in test [1], in test [2], in test [3], in test [4] (cho-k1), in test [5] and in test [6] was “Not Active” in each case. Further, the IC50 result in test [7] was “Not Active”. The Ki entry in test [2] was “Not Active”.

As to `NC[C@@H]1O[C@H](O[C@H]2[C@@H](O)[C@H](O[C@@H]3[C@@H](O)[C@H](N)C[C@H](N)[C@H]3O[C@H]3O[C@H](CN)[C@@H](O)[C@H](O)[C@H]3N)O[C@@H]2CO)[C@H](N)[C@@H](O)[C@@H]1O` [FRAMYCETIN], the IC50 entry in test [1], in test [2], in test [3], in test [5], in test [6] and in test [7] was “Not Active” each time. For the same compound, the Ki result in test [2] and in test [4] (cho-k1) was “Not Active” throughout.

Consider `C[C@H]([C@](O)(Cn1cncn1)c1ccc(F)cc1F)S(C)(=O)=O` [GENACONAZOLE], for which the IC50 entry in test [1], in test [2], in test [3], in test [4] (cho-k1), in test [5] and in test [6] was “Not Active” in each case. Moreover, in test [7], the IC50 entry was “Not Active”. Moreover, the Ki result in test [2] was “Not Active”.

Take `Cc1c(F)c(N2CCNC(C)C2)cc2c1c(=O)c(C(=O)O)cn2C1CC1` (stereo not given) [GREPAFLOXACIN]: the IC50 entry in test [1], in test [2], in test [3], in test [4] (cho-k1), in test [5] and in test [6] was “Not Active” each time. Besides, the IC50 result in test [7] is “Not Active”. Further, in test [2], the Ki entry is recorded as “Not Active”.

In the case of `COc1ccccc1OCC(O)CO` (stereo not given) [GUAIFENESIN], the IC50 result in test [1], in test [2], in test [3], in test [4] (cho-k1), in test [5] and in test [6] was “Not Active” in each case. In addition, the IC50 result in test [7] is reported as “Not Active”. Besides, the Ki result in test [2] is reported as “Not Active”.

`CC[C@H](C)C(=O)O[C@H]1C[C@@H](C)C=C2C=C[C@H](C)[C@H](CC[C@@H]3C[C@@H](O)CC(=O)O3)[C@H]21` [LOVASTATIN]: the IC50 result in test [1], in test [2], in test [3], in test [4] (cho-k1), in test [5] and in test [7] was “Not Active” in each case. For the same compound, the Ki result in test [2] is “Not Active”. Moreover, the negative-log IC50 (pIC50) in test [6] is 5.06. Besides, the pKi in test [6] was 5.06.

For `CC(C(=O)O)c1ccc(CC2CCCC2=O)cc1` (stereo not given) [LOXOPROFEN], the IC50 result in test [1], in test [2], in test [3], in test [4] (cho-k1), in test [5] and in test [6] was “Not Active” throughout. The IC50 entry in test [7] is “Not Active”. Further, the Ki entry in test [2] was “Not Active”.

`Cc1cccc(Nc2ccccc2C(=O)O)c1C` [MEFENAMIC ACID]: the IC50 result in test [1], in test [2], in test [3], in test [4] (cho-k1), in test [5] and in test [6] was “Not Active” throughout. For the same compound, the IC50 result in test [7] is recorded as “Not Active”. The Ki result in test [2] is given as “Not Active”.

For `CN(Cc1cnc2nc(N)nc(N)c2n1)c1ccc(C(=O)N[C@@H](CCC(=O)O)C(=O)O)cc1` [METHOTREXATE], the IC50 result in test [1], in test [2], in test [3], in test [4] (cho-k1), in test [5] and in test [6] was “Not Active” throughout. Besides, the IC50 entry in test [7] was “Not Active”. Further, the Ki entry in test [2] is “Not Active”.

Take `COC(=O)c1ccccc1O` [METHYL SALICYLATE]: the IC50 result in test [1], in test [2], in test [3], in test [4] (cho-k1), in test [5] and in test [6] was “Not Active” throughout. In addition, the IC50 entry in test [7] is reported as “Not Active”. In addition, in test [2], the Ki entry is “Not Active”.

In the case of `O=C(O)c1cccnc1` [NIACIN], the IC50 result in test [1], in test [2], in test [3], in test [4] (cho-k1), in test [5] and in test [6] was “Not Active” in each case. The IC50 entry in test [7] is “Not Active”. Further, the Ki result in test [2] is reported as “Not Active”.
